As usually defined, the Kd is a measure of binding affinity in units of concentration. By MIC is commonly meant the least concentration at which growth counts as inhibited.

For experiment [1], the system named is Nα,Nε-diacetyl-L-Lys-D-Ala-D-Ala tripeptide. The experiment in a line: Isothermal titration calorimetry (ITC) equilibrium binding of GPAs to the tripeptide ligand. The following applies: for ΔG: Experiment (ITC). On the technique in general: In ITC the heat of successive injections is recorded.
Experiment [2] relates to diverse Gram-positive bacteria. Conditions: cited from earlier work.
Experiment [3] has as its system C. difficile P8. The experiment in a line: Checkerboard agar dilution of vancomycin in combination with keratinicyclin B. The format is cell-based, Clostridium difficile. Here is the method: Minimal inhibitory concentrations (MICs) were determined by the agar dilution method following the guidelines of the Clinical and Laboratory Standards Institute (CLSI). […] The effect of vancomycin in combination with keratinicyclin B against C. difficile P8 was assessed by the checkerboard agar dilution method. […] The antibiotic agar plates were prereduced in an anaerobic container prior to inoculation. […] To avoid the selection of an atypical variant, five colonies were suspended in prereduced Gifu anaerobic broth and grown to a density equivalent to a 0.5 McFarland standard (1-2×10^8 cfu/mL). Once the appropriate cell density was reached, the prereduced antibiotic agar plates were inoculated (10^5 cfu/spot). After incubating anaerobically at 37° C. for 48 h, the plates were inspected for bacterial growth. The MIC was defined as the lowest concentration of antibiotic leading to no growth, one colony, or a fine haze. […] The combination effect was defined as synergistic when ΣFIC≤0.5, additive when 0.5<ΣFIC≤1, indifferent when 1<ΣFIC≤2, and antagonistic when ΣFIC>2.
On the technique in general: In agar dilution the substance is mixed into plates at graded concentrations.

Experiment [4] concerns C. difficile P8. The experiment in a line: MIC by agar dilution method (CLSI). The format is cell-based, Clostridium difficile. The procedure: Minimal inhibitory concentrations (MICs) were determined by the agar dilution method following the guidelines of the Clinical and Laboratory Standards Institute (CLSI). […] The effect of vancomycin in combination with keratinicyclin B against C. difficile P8 was assessed by the checkerboard agar dilution method. […] The antibiotic agar plates were prereduced in an anaerobic container prior to inoculation. […] To avoid the selection of an atypical variant, five colonies were suspended in prereduced Gifu anaerobic broth and grown to a density equivalent to a 0.5 McFarland standard (1-2×10^8 cfu/mL). […] After incubating anaerobically at 37° C. for 48 h, the plates were inspected for bacterial growth. The MIC was defined as the lowest concentration of antibiotic leading to no growth, one colony, or a fine haze.

The next experiment has as its system selected gut bacteria. The experiment in a line: Antimicrobial susceptibility profile of selected gut bacteria. The format is cell-based.
For experiment [5], the system named is Clostridium difficile, Strain P8. The experiment is described as above. The class given is cell-based. The following applies: drug alone.
A further experiment concerns C. difficile. The following applies: cited from earlier work.
The subject of experiment [6] is Clostridium perfringens, Strain WAL-14572. The format is cell-based. The following applies: drug alone.
Experiment [7] deals with Ruminococcus lactaris, Strain CC59_002D, HM-1057. Kind of experiment: Antimicrobial susceptibility profile of selected gut bacteria. The class given is cell-based. The following applies: drug alone.
In a further experiment the target is tripeptide ligand. The following applies: cited from earlier work.
In a further experiment the test system is C. difficile infection. The following applies: compared to metronidazole and vancomycin; cited from earlier work.
Setting [8] is: ITC, 25° C., 0.1 M sodium phosphate buffer, pH 7.

≈ marks a conversion by molar mass, not a printed value. Read-outs that look alike come from different tables or passages of the source.

Take keratinimicin A: the ΔG in [1] was -7.9 kcal/mol. Moreover, in experiment [1] (ITC, 25° C., pH 7), the TΔS is recorded as 0.85 kcal/mol. Also, the Kd in [1] (ITC, 25° C., pH 7, unit inferred) was 1.7 ± 0.3 µM. Moreover, in experiment [2], the spectrum of activity entry is “broad-spectrum activity against diverse Gram-positive bacteria”.

For `CO[C@H]1[C@H](C)O[C@@H](O[C@@H]2c3ccc(c(Cl)c3)Oc3cc4cc(c3O[C@@H]3O[C@H](CO)[C@@H](O)[C@H](O)[C@H]3O[C@H]3C[C@H](N)[C@@H](O)[C@H](C)O3)Oc3ccc(cc3)[C@H]3OC(=O)N[C@H]3C(=O)N[C@@H](Cc3ccccc3)C(=O)N[C@H]4C(=O)N[C@H]3C(=O)N[C@@H]2C(=O)N[C@H](C(=O)O)c2cc(O)cc(O[C@H]4O[C@H](CO)[C@@H](O)[C@H](O)[C@@H]4O)c2-c2cc3ccc2O)C[C@@H]1N` [keratinicyclin B], in experiment [1] (ITC, several concentrations tested), the “binding of the tripeptide” value is “did not bind the tripeptide”. The Kd in experiment [1] (ITC, estimated based on the sensitivity of the setup) was greater than 500 µM. The Checkerboard analysis result in the experiment on C. difficile P8 [3] (keratinicyclin B 4 μg/mL + vancomycin 0 μg/mL) and in the experiment on C. difficile P8 [3] (keratinicyclin B 8 μg/mL + vancomycin 0 μg/mL) was “I (I = indifference)” in each case. In addition, the MIC with C. difficile P8 [4] (alone, anaerobic, 37° C., 48 h) is 4 µg/mL. The “spectrum of antibacterial activity” value with selected gut bacteria (each drug alone, FIG. 5) is on record as “narrower spectrum of antibiotic activity”. Besides, the growth inhibition entry in [5], in experiment [6] and in experiment [7] was “inhibiting the growth” in each case. Besides, the “minimal inhibitory concentration (MIC)” value in the experiment on C. difficile (previous bioactivity data) was 9.8 µM (≈ 16.1 µg/mL). In addition, in the experiment with C. difficile (previously shown), the spectrum of activity result is “narrow-spectrum activity against C. difficile”.

On to `C[C@@H]1O[C@@H](O[C@H]2[C@H](Oc3c4cc5cc3Oc3ccc(cc3Cl)[C@@H](O)[C@@H](N)C(=O)N[C@@H](CC(N)=O)C(=O)N[C@H]5C(=O)N[C@H]3C(=O)N[C@H](C(=O)N[C@H](C(=O)O)c5cc(O)cc(O)c5-c5cc3ccc5O)[C@H](O)c3ccc(c(Cl)c3)O4)O[C@H](CO)[C@@H](O)[C@@H]2O)C[C@](C)(N)[C@@H]1O` [desleucyl-1], for which the Kd on tripeptide ligand (Experiment section of Table 2, reported value) is roughly 20000 µM; on tripeptide ligand (reported experimental value), roughly 20000 µM. Besides, the “binding of the tripeptide ligand” value with tripeptide ligand (N-terminal N-Me-D-Leu removed by Edman degradation) is listed as “does not bind the tripeptide ligand”.

Compound keratinimicin C came in with a Kd in experiment [1] (setting [8]) of 2.8 ± 0.3 µM. In experiment [1] (ITC, 25° C., pH 7), this compound showed a TΔS of 0.2 kcal/mol and a ΔH of -7.4 ± 0.3 kcal/mol.

Take `CCc1c(Cl)c(O)c(Cl)c(O)c1C(=O)O[C@H]1[C@H](O)[C@H](OC)[C@H](OC/C2=C\C=C\C[C@H](O)/C(C)=C/[C@H](CC)[C@@H](O[C@@H]3OC(C)(C)[C@@H](OC(=O)C(C)C)[C@H](O)[C@@H]3O)/C(C)=C/C(C)=C/C[C@@H]([C@@H](C)O)OC2=O)O[C@@H]1C` [fidaxomicin]: the recurrence rates result in the experiment on C. difficile infection is on record as “halves recurrence rates”.

With `CN[C@H](CC(C)C)C(=O)N[C@H]1C(=O)N[C@@H](CC(N)=O)C(=O)N[C@H]2C(=O)N[C@H]3C(=O)N[C@H](C(=O)N[C@H](C(=O)O)c4cc(O)cc(O)c4-c4cc3ccc4O)[C@H](O)c3ccc(c(Cl)c3)Oc3cc2cc(c3O[C@@H]2O[C@H](CO)[C@@H](O)[C@H](O)[C@H]2O[C@H]2C[C@](C)(N)[C@H](O)[C@H](C)O2)Oc2ccc(cc2Cl)[C@H]1O` [vancomycin], the ΔG in experiment [1] was -7.6 kcal/mol. This compound returned a dissociation constant (Kd) in experiment [1] (setting [8]) of 2.7 ± 0.4 µM. In addition, in experiment [1] (ITC, 25° C., pH 7), the TΔS is -0.96 kcal/mol and the ΔH was -8.6 ± 0.5 kcal/mol. In addition, in the experiment on C. difficile P8 [4] (Clostridioides difficile, P8, 48 h), the MIC came to 1 µg/mL. In addition, the “spectrum of antibacterial activity” value in the experiment with selected gut bacteria is reported as “broad-spectrum antibacterial activity against all tested Gram-positive bacteria”.

These data come from patent US12533389B2, “Glycopeptide antibiotic combination therapy” (The Trustees of Princeton University, priority 2021, dated 2026).
